Measurements reported in ChEMBL document CHEMBL1201862, “PubChem BioAssay data set” (2004).
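Grown in 96-well plates, cells were treated for 48 hours with each compound at five concentrations. Insufficient inhibition: endpoint recorded as highest concentration tested. The concentration for 50% growth inhibition is given as GI50.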 The source made the active and inactive calls. Cut-off read from the data, not from the text of the source: active = GI50 up to about 1.1 µM and inactive = higher.

What was measured:
Experiment in all cases: inhibition of tumour cell growth, NCI panel, 48 h
TK-10 = system: TK-10
CCRF-CEM = system: CCRF-CEM
EKVX = system: EKVX
IGROV-1 = system: IGROV-1
HOP-92 = system: HOP-92
CAKI-1 = system: CAKI-1
KM12 = system: KM12
MDA-N = system: MDA-N
A498 = system: A498
MDA-MB-231 = system: MDA-MB-231
SF-539 = system: SF-539
SK-MEL-28 = system: SK-MEL-28
SW-620 = system: SW-620
NCI-H23 = system: NCI-H23
MDA-MB-435 = system: MDA-MB-435
OVCAR-8 = system: OVCAR-8
SF-268 = system: SF-268
A549 = system: A549
NCI-H226 = system: NCI-H226
MCF7 = system: MCF7
NCI-H522 = system: NCI-H522
NCI/ADR-RES = system: NCI/ADR-RES
U-251 = system: U-251
HL-60 = system: HL-60
Malme-3M = system: Malme-3M
ACHN = system: ACHN
786-0 = system: 786-0
M14 = system: M14
HCT-116 = system: HCT-116
OVCAR-4 = system: OVCAR-4
HCC 2998 = system: HCC 2998
SK-MEL-5 = system: SK-MEL-5
LOX IMVI = system: LOX IMVI
BT-549 = system: BT-549
UO-31 = system: UO-31
UACC-62 = system: UACC-62
RPMI-8226 = system: RPMI-8226
DU-145 = system: DU-145
COLO 205 = system: COLO 205
OVCAR-5 = system: OVCAR-5
SNB-75 = system: SNB-75
Hs-578T = system: Hs-578T
T47D = system: T47D
RXF 393 = system: RXF 393
NCI-H460 = system: NCI-H460
HT-29 = system: HT-29
K562 = system: K562
PC-3 = system: PC-3
HCT-15 = system: HCT-15
SR = system: SR
UACC-257 = system: UACC-257
SN12C = system: SN12C
SNB-19 = system: SNB-19
SK-MEL-2 = system: SK-MEL-2
MOLT-4 = system: MOLT-4
SK-OV-3 = system: SK-OV-3
HOP-62 = system: HOP-62
OVCAR-3 = system: OVCAR-3
SF-295 = system: SF-295

## Cc1ccc2c(c1)C=CC(C#N)N2C(=O)Oc1ccccc1 (stereo not drawn)
TK-10
  GI50: 31 µM (inactive)
CCRF-CEM
  GI50: 17.2 µM (inactive)
EKVX
  GI50: 18.1 µM (inactive)
IGROV-1
  GI50: 36 µM (inactive)
HOP-92
  GI50: 30.2 µM (inactive)
CAKI-1
  GI50: 57.4 µM (inactive)
KM12
  GI50: 17.1 µM (inactive)
MDA-N
  GI50: 29 µM (inactive)
A498
  GI50: 20.6 µM (inactive)
MDA-MB-231
  GI50: 38.9 µM (inactive)
SF-539
  GI50: 60.7 µM (inactive)
SK-MEL-28
  GI50: 77.8 µM (inactive)
SW-620
  GI50: 30.5 µM (inactive)
NCI-H23
  GI50: 19.5 µM (inactive)
MDA-MB-435
  GI50: 14.5 µM (inactive)
OVCAR-8
  GI50: 17.4 µM (inactive)
SF-268
  GI50: 29.9 µM (inactive)
A549
  GI50: 29.5 µM (inactive)
NCI-H226
  GI50: 31 µM (inactive)
MCF7
  GI50: 19.7 µM (inactive)
NCI-H522
  GI50: 16.3 µM (inactive)
NCI/ADR-RES
  GI50: 20.2 µM (inactive)
U-251
  GI50: 23.7 µM (inactive)
HL-60
  GI50: 18.9 µM (inactive)
Malme-3M
  GI50: 33 µM (inactive)
ACHN
  GI50: 27 µM (inactive)
786-0
  GI50: 43.7 µM (inactive)
M14
  GI50: 40.8 µM (inactive)
HCT-116
  GI50: 37.9 µM (inactive)
OVCAR-4
  GI50: 24.7 µM (inactive)
HCC 2998
  GI50: 16.6 µM (inactive)
SK-MEL-5
  GI50: 24.3 µM (inactive)
LOX IMVI
  GI50: 20.6 µM (inactive)
BT-549
  GI50: 22.8 µM (inactive)
UO-31
  GI50: 27.7 µM (inactive)
UACC-62
  GI50: 31.4 µM (inactive)
RPMI-8226
  GI50: 17.9 µM (inactive)
DU-145
  GI50: 17.9 µM (inactive)
COLO 205
  GI50: 25.9 µM (inactive)
OVCAR-5
  GI50: 61.4 µM (inactive)
SNB-75
  GI50: 40.6 µM (inactive)
Hs-578T
  GI50: 41.6 µM (inactive)
T47D
  GI50: 20.8 µM (inactive)
RXF 393
  GI50: 37.7 µM (inactive)
NCI-H460
  GI50: 29.6 µM (inactive)
HT-29
  GI50: 18.7 µM (inactive)
K562
  GI50: 23.7 µM (inactive)
PC-3
  GI50: 26.3 µM (inactive)
HCT-15
  GI50: 21.1 µM
SR
  GI50: 19.4 µM (inactive)
UACC-257
  GI50: 39.8 µM (inactive)
SN12C
  GI50: 35.8 µM (inactive)
SNB-19
  GI50: 31.8 µM (inactive)
SK-MEL-2
  GI50: 22.7 µM (inactive)
MOLT-4
  GI50: 19.6 µM (inactive)

## O=C(OC1C=C=CS(=O)(=O)CC#C/C=C\1)c1cnc2ccccc2n1 (stereo not drawn)
TK-10
  GI50: > 100 µM (inactive)
CCRF-CEM
  GI50: > 100 µM (inactive)
EKVX
  GI50: 97.3 µM (inactive)
IGROV-1
  GI50: 79.6 µM (inactive)
HOP-92
  GI50: 12.7 µM (inactive)
CAKI-1
  GI50: > 100 µM (inactive)
KM12
  GI50: > 100 µM (inactive)
MDA-N
  GI50: 52 µM (inactive)
SK-OV-3
  GI50: > 100 µM (inactive)
A498
  GI50: > 100 µM (inactive)
MDA-MB-231
  GI50: 28.8 µM (inactive)
SF-539
  GI50: > 100 µM (inactive)
SK-MEL-28
  GI50: > 100 µM (inactive)
SW-620
  GI50: 40.8 µM (inactive)
NCI-H23
  GI50: 83.6 µM (inactive)
MDA-MB-435
  GI50: > 100 µM (inactive)
OVCAR-8
  GI50: > 100 µM (inactive)
SF-268
  GI50: > 100 µM (inactive)
A549
  GI50: > 100 µM (inactive)
NCI-H226
  GI50: > 100 µM (inactive)
MCF7
  GI50: 27.5 µM (inactive)
NCI-H522
  GI50: 25.7 µM (inactive)
NCI/ADR-RES
  GI50: > 100 µM (inactive)
U-251
  GI50: 84.1 µM (inactive)
HL-60
  GI50: 76.4 µM (inactive)
Malme-3M
  GI50: > 100 µM (inactive)
ACHN
  GI50: 93.1 µM (inactive)
M14
  GI50: > 100 µM (inactive)
HCT-116
  GI50: 92.3 µM (inactive)
OVCAR-4
  GI50: > 100 µM (inactive)
HCC 2998
  GI50: > 100 µM (inactive)
SK-MEL-5
  GI50: 91.4 µM (inactive)
HOP-62
  GI50: > 100 µM (inactive)
LOX IMVI
  GI50: 29.8 µM (inactive)
BT-549
  GI50: > 100 µM (inactive)
UO-31
  GI50: 76.6 µM (inactive)
UACC-62
  GI50: 26.4 µM (inactive)
RPMI-8226
  GI50: 57 µM (inactive)
DU-145
  GI50: > 100 µM (inactive)
COLO 205
  GI50: 63.7 µM (inactive)
OVCAR-5
  GI50: > 100 µM (inactive)
SNB-75
  GI50: > 100 µM (inactive)
Hs-578T
  GI50: > 100 µM (inactive)
T47D
  GI50: > 100 µM (inactive)
OVCAR-3
  GI50: > 100 µM (inactive)
RXF 393
  GI50: > 100 µM (inactive)
NCI-H460
  GI50: > 100 µM (inactive)
HT-29
  GI50: > 100 µM (inactive)
K562
  GI50: 61.4 µM (inactive)
PC-3
  GI50: > 100 µM (inactive)
HCT-15
  GI50: 48.4 µM
SR
  GI50: 68.9 µM (inactive)
UACC-257
  GI50: > 100 µM (inactive)
SN12C
  GI50: > 100 µM (inactive)
SF-295
  GI50: > 100 µM (inactive)
SNB-19
  GI50: > 100 µM (inactive)
SK-MEL-2
  GI50: > 100 µM (inactive)
MOLT-4
  GI50: 50.7 µM (inactive)
